Measurements taken from patent EP1701623B1, “METHODS FOR WASHING POULTRY DURING PROCESSING WITH MEDIUM CHAIN PEROXYCARBOXYLIC ACID COMPOSITIONS” (ECOLAB INC., priority 2004, dated 2005).

How the values were obtained:
Bacterial Spores = assay: Antimicrobial activity against bacterial spores versus conventional compositions; assay type: cell-based; details: 0.5 min, pH 3.32, 35%
Procedure: (§1) Antimicrobial activity was determined according to two well established methods. The first method was the procedure set out in Germicidal and Detergent Sanitizing Action of Disinfectants, Official Methods of Analysis of the Association of Official Analytical Chemists, paragraph 960.09 and applicable sections, 15th Edition, 1990 (EPA Guideline 91-2). The second method was the procedure described in A.O.A.C. Use Dilution Methods, Official Methods of Analysis of the Association of Official Analytical Chemists, paragraph 955.14 and applicable sections, 15th Edition, 1990 (EPA Guideline 91-2). Briefly, antimicrobial activity of the present compositions was determined by exposing a one mL aliquot containing the target microorganism to 99 mL of the desired concentration of the test substance at the desired temperature. After the specified contact time, one mL of the test solution containing the microorganism was neutralized and enumerated for survivors.

S. aureus = assay: Antimicrobial activity, AOAC sanitizing/use dilution suspension test; assay type: cell-based; details: Staphylococcus aureus
Procedure: as §1

| SMILES | log reduction at 35 % (Bacterial Spores; 40 °C, 30 sec) | log reduction at 35 % (Bacterial Spores; 40 °C, 60 sec) | log reduction at 35 % (Bacterial Spores; 40 °C, 120 sec) | log reduction at 35 % (Bacterial Spores; 60 °C, 10 sec) | log reduction at 35 % (Bacterial Spores; 60 °C, 20 sec) | log reduction at 35 % (Bacterial Spores; 60 °C, 30 sec) | log reduction at 35 % (Bacterial Spores; 80 °C, 10 sec) | log reduction at 35 % (Bacterial Spores; 80 °C, 20 sec) | log reduction at 35 % (Bacterial Spores; 80 °C, 30 sec) | log reduction at 5 µg/mL (S. aureus; concentration of 5 ppm and pH of ∼5, Table 25, read-out: log reductions of Staphylococcus aureus) | log reduction at 11 µg/mL (S. aureus; pH 6.1, pH of 6.1, 11 ppm of peroxyoctanoic acid (POOA), Table 13 (composition K), read-out: reducing S. aureus) |
| --- | --- | --- | --- | --- | --- | --- | --- | --- | --- | --- | --- |
| OO [Composition H2O2, hydrogen peroxide] | 1.19 | 2.94 | > 6.3 | 1.59 | 4.85 | 4.89 | > 6.3 | > 6.3 | > 6.3 | – | – |
| CCCCCCCC(=O)OO [Pure POOA Crystals, peroxyoctanoic acid] | – | – | – | – | – | – | – | – | – | 5 | > 7.04 |
